From ChEMBL document CHEMBL1150558, “Enantiomeric Composition of Trans-Dihydrodiols Formed from Meso-K-Region Arene Oxides by Microsomal Epoxide Hydrolase” (Bioorg Med Chem Lett, 1992)

Legend:
[1] = molecular target: Epoxide hydrolase 1 (Oryctolagus cuniculus) (UniProt P04068); assay: Percent Enantiomeric composition (R,R) of trans-Dihydrodiol formed by Microsomal Epoxide Hydrolase from rabbit liver microsomes
[2] = molecular target: Epoxide hydrolase 1 (Oryctolagus cuniculus) (UniProt P04068); assay: Percent Enantiomeric composition (S,S) of trans-Dihydrodiol formed by Microsomal Epoxide Hydrolase from rabbit liver microsomes
[3] = molecular target: T1, Epoxide hydrolase 1 (Rattus norvegicus) (UniProt P07687); assay: Percent Enantiomeric composition (R,R) of trans-Dihydrodiol formed by Microsomal Epoxide Hydrolase from rat liver at 50 mM Tris-HCl buffer, pH 8.4 at 37 degrees C
T1 sequence (whole entry): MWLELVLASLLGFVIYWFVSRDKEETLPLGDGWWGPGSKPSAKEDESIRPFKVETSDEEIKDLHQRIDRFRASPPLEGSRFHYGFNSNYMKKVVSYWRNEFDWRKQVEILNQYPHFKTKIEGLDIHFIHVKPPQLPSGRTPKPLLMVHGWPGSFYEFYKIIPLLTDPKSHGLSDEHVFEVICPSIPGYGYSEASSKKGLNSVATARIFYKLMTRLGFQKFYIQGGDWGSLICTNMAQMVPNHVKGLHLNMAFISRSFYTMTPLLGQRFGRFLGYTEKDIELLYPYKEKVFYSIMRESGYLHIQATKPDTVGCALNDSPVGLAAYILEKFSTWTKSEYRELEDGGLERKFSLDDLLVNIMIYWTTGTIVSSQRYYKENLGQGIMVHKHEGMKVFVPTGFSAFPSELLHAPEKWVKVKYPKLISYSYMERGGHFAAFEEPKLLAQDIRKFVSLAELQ

[4] = molecular target: T1, Epoxide hydrolase 1 (Rattus norvegicus); assay: Percent Enantiomeric composition (S,S) of trans-Dihydrodiol formed by Microsomal Epoxide Hydrolase from rat liver at 50 mM Tris-HCl buffer, pH 8.4 at 37 degrees C

Chain of Epoxide hydrolase 1 (Oryctolagus cuniculus) (P04068 whole entry, looked up): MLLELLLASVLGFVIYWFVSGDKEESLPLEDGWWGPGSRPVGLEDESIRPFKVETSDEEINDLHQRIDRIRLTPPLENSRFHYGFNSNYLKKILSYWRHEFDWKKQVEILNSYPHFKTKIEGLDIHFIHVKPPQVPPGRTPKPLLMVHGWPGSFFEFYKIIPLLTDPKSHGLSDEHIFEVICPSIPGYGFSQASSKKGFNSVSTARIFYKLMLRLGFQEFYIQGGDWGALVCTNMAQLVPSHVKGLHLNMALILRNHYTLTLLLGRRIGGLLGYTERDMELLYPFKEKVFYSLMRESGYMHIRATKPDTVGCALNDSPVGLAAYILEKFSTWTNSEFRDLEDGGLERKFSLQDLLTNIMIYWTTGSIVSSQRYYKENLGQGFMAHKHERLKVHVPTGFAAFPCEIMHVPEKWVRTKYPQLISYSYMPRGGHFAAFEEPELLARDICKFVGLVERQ

Enantiomeric composition [1] | Enantiomeric composition [2] | Enantiomeric composition [3] | Enantiomeric composition [4] | Structure (SMILES)
82% | 18% | – | – | C1=CC2OC2C=C1 (stereo not drawn)
– | – | 86% | 14% | c1cc2c3c(c1)ccc1cccc(c13)C1OC21 (stereo not drawn)
– | – | 83% | 17% | c1ccc2c(c1)c1cccc3c1c1c(cccc21)C1OC31 (stereo not drawn)
– | – | 42% | 58% | c1ccc2c(c1)-c1ccccc1C1OC21 (stereo not drawn)
